Experimental data taken from patent US20150110814A1, “COMBINATION THERAPIES WITH PSMA LIGAND CONJUGATES” (PSMA Development Company, LLC, priority 2013, published 2015).
Square brackets hold non-standard residues; d marks the D form. Peptide text beside a SMILES is read from it. * marks the point of attachment. Dolaproine = CO[C@@H]([C@@H]1CCCN1)[C@@H](C)C(=O)O; Dil = CC[C@H](C)[C@H](NC)[C@@H](CC(=O)O)OC; X1 = C[C@@H](N*)[C@@H](O)c1ccccc1; NMeV = CN[C@H](C(=O)O)C(C)C

Experiments:
[1] = tested on: LNCaP cells; assay: Cell viability assay (CellTiter-Glo, inhibition of proliferation, Bliss synergy); assay type: cell-based, human; conditions: for activity when combined with PSMA ADC: LNCaP cells (FIG. 8)
Method: (§1) Cells were plated at a density of 1×10^3 cells in 25 μL in 384-well white-colored microplates (Perkin Elmer) and cultured overnight. The next day, cells were treated with 1 or 2 drugs in a total volume of 50 μL. Cultures were incubated at 37° C. for 7 days. Viability was assessed on days 0 and 7 using CellTiter-Glo (Promega) and an Analyst GT luminescence reader at 560 nm emission (Molecular Devices). The percent inhibition of proliferation was calculated as (Vu−Vt)/(Vu−V0)×100, where Vu, Vt and V0 represent the viability values for untreated cells on day 7, treated cells on day 7, and cells prior to treatment on day 0, respectively. […] Values of >100% reflect cytotoxic compounds or combinations, where Vt<V0.
(§2) Drug combinations were tested in 3 to 7 independent repeat cell viability assays unless otherwise indicated Inhibition data were fit to a four-parameter logistic equation using GraphPad Prism. […] Bliss differences were calculated by subtracting the predicted value (Fc) from the experimentally observed inhibition. Mean Bliss differences were calculated for each point in a matrix of drug-drug combinations, converted to percentages, and assessed for statistical significance from the null value of zero using two-sided t-tests with a significance level of 0.05. Statistical evaluations were not performed in cases where the fractional growth inhibition exceeded unity, since such values fall outside the Bliss framework. In addition, Bliss differences of less than 5% were considered to be of limited biological relevance and were excluded from synergy considerations.

[2] = tested on: C4-2 cells; assay: as above; assay type: cell-based, human; conditions: for activity when combined with PSMA ADC: C4-2 cells (FIG. 8)
Method: as §1, §2

[3] = tested on: PSMA in C4-2 cells; assay: Western blotting of total PSMA; assay type: cell-based, human; conditions: 7 days
Method: (§3) Cells (300,000) were incubated overnight in 6-well plates (BD Falcon) in 4 mL of 10% FBS RPMI1640 media prior to addition of inhibitors. Plates were incubated at 37° C. for an additional 7 days, washed once with 5 mL of cold PBS(−) and placed on ice. Cells were lysed with 130 μL of RIPA Lysis Buffer (Santa Cruz Biotechnology) and then centrifuged at 14,000×g for 10 minutes at 4° C. The supernatant was quantitated for protein concentration using a BCA kit (Pierce/Thermo), resolved under reducing conditions using NuPAGE Novex 4-12% Bis-Tris gels (Life Technologies), and transferred to nitrocellulose using the iBlot 7-Minute Blotting System (Life Technologies). Membranes were blocked using Odyssey Blocking Reagent (LI-COR Biosciences), incubated with primary and secondary antibodies, and visualized using an Odyssey infrared imager (LI-COR Biosciences).

[4] = tested on: PSMA in LNCaP cells; assay: Western blotting of total PSMA; assay type: cell-based, human; conditions: 7 days, serial dilution of lysates
Method: as §3

[5] = tested on: PSMA expression on C4-2 cells; assay: Flow cytometry of cell-surface PSMA expression; assay type: cell-based, human; design: cell-surface PSMA expression / PSMA expression on treated cells relative to untreated cells: dose or concentration left out as unconfirmed; conditions: for cell-surface PSMA expression: 7 days post-treatment
Method: (§4) For short-term treatments (≦7 days), cells were plated on 24-well plates (BD Falcon) overnight, at a density of 200,000 cells per 500 μL. The next day, wells were exchanged with 500 μL of fresh media that included inhibitor, and incubated at 37° C. until the indicated time point. For the long-term treatments (>7 days), cells were plated on T-25 flasks (BD Falcon) overnight, at a density of 500,000 cells per flask in 5 mL of media. 5 mL of fresh media with or without treatment was exchanged the next day. On weekly splits thereafter, cells were detached with Cell Dissociation solution (Sigma), washed with fresh media, counted using Vi-CELL XR (Beckman Coulter), and split into two T-25 flasks for continued culture with or without inhibitor. Prior to analysis, cells were detached, counted and suspended in PBS (PBS(−), without Ca/Mg, Life Technologies) containing 0.3% bovine serum albumin (BSA, Sigma) and 0.1% sodium azide (VWR). Cells (100,000 in 100 μL) were placed in round-bottom 96-well plates (Falcon) and incubated for 30 minutes at room temperature with 1 μg/mL of anti-PSMA mAb 3.9 conjugated to phycoerythrin (PE). Cells then were washed twice with 200 μL PBS/BSA/azide buffer and read using a FACSCalibur instrument (BD Biosciences). A mouse IgG2b-PE conjugate of irrelevant specificity (Abcam) was included as an isotype control.

[6] = tested on: PSMA expression on LNCaP cells; assay: Flow cytometry of cell-surface PSMA expression; assay type: cell-based, human; conditions: antiandrogens concentrations above 1 mM, 7 days post-treatment
Method: as §4

[7] = tested on: metastatic, castration-resistant prostate cancer (mCRPC); conditions: subjects with mCRPC; cited from earlier work

Compound | single-agent antiproliferative effect ([1]; LNCaP cells, single agent) | effect on the activity of PSMA ADC ([2]; C4-2 cells) | single-agent antiproliferative effect ([2]; C4-2 cells, single agent) | activity when combined with PSMA ADC [1] | activity when combined with PSMA ADC [2] | also measured
CNC(=O)c1ccc(N2C(=S)N(c3cnc(C#N)c(C(F)(F)F)c3)C(=O)C23CCC3)cc1F [ARN-509] | inhibited proliferation | enhanced the activity of PSMA ADC | minimal antiproliferative effects | – | – | –
CNC(=O)c1ccc(N2C(=S)N(c3ccc(C#N)c(C(F)(F)F)c3)C(=O)C2(C)C)cc1F [Enzalutamide, enzalutamide] | inhibited proliferation | significantly enhanced the activity of PSMA ADC | minimal antiproliferative effects | – | – | PSMA upregulation (Western) [3]: upregulated PSMA to similar extents; magnitude of increase in PSMA (Western, semi-quantitative) [4]: approximately 5 fold; cell-surface PSMA expression ([5]; C4-2): approximately doubled; cell-surface PSMA expression ([5]; C4-2, listed as enzalutamide): doubled; time for PSMA expression to return to baseline in the absence of drug ([5]; C4-2, after 3 weeks culture in enzalutamide): ≤ 7 days; PSMA expression on treated cells relative to untreated cells ([5]; C4-2, after 21 days): 4 fold; exposure time to maximal PSMA expression ([5]; FIG. 15, cell line not stated in legend): 3 to 4 weeks; cell-surface PSMA expression [6]: approximately doubled
CS(=O)(=O)N1CCN(Cc2cc3nc(-c4cccc5[nH]ncc45)nc(N4CCOCC4)c3s2)CC1 [GDC-0941, 2-(1H-indazol-4-yl)-6-(4-methanesulfonyl-piperazin-1-ylmethyl)-4-morpholin-4-yl-t hieno[3,2-d]pyrimidine] | – | – | – | additive to weakly synergistic activity | additive to weakly synergistic activity | –
CO[C@H]1C(=O)[C@]2(C)[C@@H](OC)C[C@H]3OC[C@@]3(OC(C)=O)[C@H]2[C@H](OC(=O)c2ccccc2)[C@]2(O)C[C@H](OC(=O)[C@H](O)[C@@H](NC(=O)OC(C)(C)C)c3ccccc3)C(C)=C1C2(C)C [Jevtana, cabazitaxel] | – | – | – | – | – | survival benefit [7]: 2.4 month
NC1(c2ccc(-c3nc4ccn5c(=O)[nH]nc5c4cc3-c3ccccc3)cc2)CCC1 [MK-2206] | – | – | – | additive to weakly synergistic activity | additive to weakly synergistic activity | –
CC[C@H](C)[C@@H]([C@@H](CC(=O)N1CCC[C@H]1[C@H](OC)[C@@H](C)C(=O)N[C@H](C)[C@@H](O)c1ccccc1)OC)N(C)C(=O)[C@@H](NC(=O)[C@@H](NC)C(C)C)C(C)C [MMAE, monomethylauristatin norephedrine] (H-[NMeV]V[Dil][Dolaproine]-X1) | – | – | – | – | – | activity when paired with enzalutamide or abiraterone ([1]; LNCaP cells): additive activity; IC50 ([1]; LNCaP cells, single agent, 7 days): ~0.5 nM; activity when paired with enzalutamide or abiraterone ([2]; C4-2 cells): additive to weakly synergistic activity; IC50 ([2]; C4-2 cells, single agent, 7 days): ~0.5 nM
C[C@]12C=CC(=O)C=C1CC[C@@H]1[C@@H]2C(=O)C[C@@]2(C)[C@H]1CC[C@]2(O)C(=O)CO [Prednisone, prednisone] | – | – | – | additive to weakly synergistic activity | additive to weakly synergistic activity | –
CO[C@H]1C[C@@H]2CC[C@@H](C)[C@@](O)(O2)C(=O)C(=O)N2CCCC[C@H]2C(=O)O[C@H]([C@H](C)C[C@@H]2CC[C@@H](O)[C@H](OC)C2)CC(=O)[C@H](C)/C=C(\C)[C@@H](O)[C@@H](OC)C(=O)[C@H](C)C[C@H](C)/C=C/C=C/C=C/1C [Rapamycin, rapamycin] | – | – | – | – | – | increase in PSMA expression ([5]; C4-2, low nanomolar concentrations, 7 days): > 2 fold
Cc1ccc(C(=O)N(CCCN)[C@@H](c2oc3cc(Cl)ccc3c(=O)c2Cc2ccccc2)C(C)C)cc1 [SB-743921] | – | – | – | additive to weakly synergistic activity | additive to weakly synergistic activity | –
C[C@]12CC[C@H](O)CC1=CC[C@@H]1[C@@H]2CC[C@]2(C)C(n3cnc4ccccc43)=CC[C@@H]12 [TOK-001, galeterone] | inhibited proliferation | enhanced the activity of PSMA ADC | minimal antiproliferative effects | – | – | –
